# From US20180057462A1, “Substituted 2-difluoromethyl-nicotin(thio)carboxanilide derivatives and their use as fungicides” (BAYER CROPSCIENCE AKTIENGESELLSCHAFT, priority 2015, published 2018)
# Assay: LogP by HPLC on reversed phase columns (EEC directive 79/831 Annex V.A8), method [a]
# Format: physicochemical
# Settings: LC-UV, acidic range, 0.1% formic acid in water and acetonitrile as eluent (linear gradient 10% to 95% acetonitrile)
row,Structure (SMILES),LogP[a]
1,Cc1c(NC(=O)c2cccnc2C(F)F)cccc1OCC=C(Cl)Cl [Example 76],3.21
2,Cc1c(NC(=O)c2cccnc2C(F)F)cccc1OC(C)c1ccccc1Cl (centres unmarked) [Example 50],3.79
3,Cc1c(NC(=O)c2cccnc2C(F)F)cccc1OC(C)CC(C)(C)C (centres unmarked) [Example 84],4.21
4,O=C(Nc1cccc(-c2ccccc2)c1Cl)c1cccnc1C(F)F [Example 3],3.05
5,Cc1c(NC(=O)c2cccnc2C(F)F)cccc1C1CCCCC1(C)C (centres unmarked) [Example 116],4.31
6,Cc1c(NC(=O)c2cccnc2C(F)F)cccc1OC(C)c1c(F)cccc1F (centres unmarked) [Example 52],3.33
7,Cc1c(NC(=O)c2cccnc2C(F)F)cccc1NC1CCCC1 [Example 107],2.17
8,Cc1c(NC(=O)c2cccnc2C(F)F)cccc1OCc1cc(Cl)ccc1Cl [Example 43],3.85
9,Cc1ccc(-c2cccc(NC(=O)c3cccnc3C(F)F)c2C)s1 [Example 111],3.19
10,Cc1c(NC(=O)c2cccnc2C(F)F)cccc1OC(C)COC(C)(C)C (centres unmarked) [Example 24],3.31
11,CCOc1cccc(NC(=O)c2cccnc2C(F)F)c1C [Example 118],2.34
12,O=C(Nc1cccc(-c2ccc(F)cc2)c1Cl)c1cccnc1C(F)F [Example 6],3.12
13,Cc1c(NC(=O)c2cccnc2C(F)F)cccc1OCC(C)C [Example 13],3.17
14,Cc1c(NC(=O)c2cccnc2C(F)F)cccc1OCCC(C)(C)C [Example 78],3.85
15,Cc1cnc(C(F)F)c(C(=O)Nc2cccc(OC(C)c3ccccc3)c2C(F)(F)F)c1 (centres unmarked) [Example 102],3.69
16,Cc1c(NC(=O)c2cccnc2C(F)F)cccc1OC(C)COCC(C)C (centres unmarked) [Example 23],3.55
17,Cc1c(NC(=O)c2cccnc2C(F)F)cccc1OCCc1ccc(F)cc1 [Example 63],3.29
18,Cc1c(NC(=O)c2cccnc2C(F)F)cccc1OC(C)c1ccc(Cl)cc1Cl (centres unmarked) [Example 115],4.41
19,Cc1c(CCC2CC2(Cl)Cl)cccc1NC(=O)c1c(C(F)F)ccnc1C(F)F (centres unmarked) [Example 1],3.92
20,Cc1c(NC(=O)c2cccnc2C(F)F)cccc1OC(C)C(C)C (centres unmarked) [Example 14],3.41
21,Cc1c(NC(=O)c2cccnc2C(F)F)cccc1S(=O)(=O)C1CCCC1 [Example 105],2.21

row,Structure (SMILES),LogP[a]
1,Cc1c(NC(=O)c2cccnc2C(F)F)cccc1OCC1CCCCC1 [Example 77],4.14
2,O=C(Nc1cccc(-c2cc(F)ccc2F)c1Cl)c1cccnc1C(F)F [Example 2],3.11
3,Cc1nc(C)c(-c2cccc(NC(=O)c3cccnc3C(F)F)c2C)s1 [Example 112],1.98
4,CCC(CC)Nc1cccc(NC(=O)c2cccnc2C(F)F)c1C [Example 106],2.86
5,Cc1c(NC(=O)c2cccnc2C(F)F)cccc1OCCc1cccc(C(F)(F)F)c1 [Example 60],3.68
6,Cc1c(NC(=O)c2cccnc2C(F)F)cccc1OCc1ccc(F)cc1 [Example 36],3.06
7,Cc1c(NC(=O)c2cccnc2C(F)F)cccc1OCc1ccc(Cl)cc1Cl [Example 46],3.99
8,Cc1ccc(OCC(C)Oc2cccc(NC(=O)c3cccnc3C(F)F)c2C)cc1 (centres unmarked) [Example 31],3.68
9,Cc1c(NC(=O)c2cccnc2C(F)F)cccc1OC(C)C1CCOC1 (centres unmarked) [Example 27],2.26
10,Cc1c(NC(=O)c2cccnc2C(F)F)cccc1OCc1ccccc1Cl [Example 37],3.41
11,Cc1c(NC(=O)c2cccnc2C(F)F)cccc1OC(C)COc1ccccc1 (centres unmarked) [Example 30],3.33
12,Cc1c(NC(=O)c2cccnc2C(F)F)cccc1OC(C)CC(C)C (centres unmarked) [Example 15],3.79
13,CCC(C)Oc1cccc(NC(=O)c2cc(C)cnc2C(F)F)c1C(F)(F)F (centres unmarked) [Example 95],3.44
14,Cc1c(NC(=O)c2cccnc2C(F)F)cccc1OCCc1cccc(F)c1 [Example 61],3.29
15,Cc1cnc(C(F)F)c(C(=O)Nc2cccc(OC(C)C)c2C(F)(F)F)c1 [Example 98],3.04
16,Cc1c(NC(=O)c2cccnc2C(F)F)cccc1OCc1ncc(C(F)(F)F)cc1Cl [Example 17],3.23
17,Cc1c(NC(=O)c2cccnc2C(F)F)cccc1OC(C)Cc1ccccc1Cl (centres unmarked) [Example 69],3.90
18,O=C(Nc1cccc(-c2ccc(Cl)cc2)c1Cl)c1cccnc1C(F)F [Example 9],3.54
19,CCC(C)Oc1cccc(NC(=O)c2cccnc2C(F)F)c1C(F)(F)F (centres unmarked) [Example 94],3.17
20,Cc1c(NC(=O)c2cccnc2C(F)F)cccc1-c1csc(C(C)C)n1 [Example 114],2.94
21,CCCC(CC)Oc1cccc(NC(=O)c2cccnc2C(F)F)c1C(F)(F)F (centres unmarked) [Example 93],3.92

row,Structure (SMILES),LogP[a]
1,Cc1c(NC(=O)c2cccnc2C(F)F)cccc1OC(C)COc1cccc(Cl)c1 (centres unmarked) [Example 34],3.76
2,CCCOCC(C)Oc1cccc(NC(=O)c2cccnc2C(F)F)c1C (centres unmarked) [Example 22],3.04
3,CC(C)Oc1cccc(NC(=O)c2ccc(Cl)nc2C(F)F)c1C(F)(F)F [Example 97],3.46
4,Cc1c(NC(=O)c2cccnc2C(F)F)cccc1OCCc1ccccc1Cl [Example 64],3.65
5,Cc1c(CCC(C)(C)C)cccc1NC(=O)c1cccnc1C(F)F [Example 74],3.92
6,Cc1c(NC(=O)c2cccnc2C(F)F)cccc1OCc1ccccc1C(F)(F)F [Example 39],3.55
7,Cc1c(NC(=O)c2cccnc2C(F)F)cccc1OC(C)CSc1ccccc1 (centres unmarked) [Example 70],3.65
8,O=C(Nc1cccc(-c2cccc(F)c2)c1Cl)c1cccnc1C(F)F [Example 5],3.12
9,O=C(Nc1cccc(OCc2ccccc2)c1C(F)(F)F)c1cccnc1C(F)F [Example 100],3.13
10,Cc1c(NC(=O)c2cccnc2C(F)F)cccc1OC(C)c1cc(Cl)ccc1Cl (centres unmarked) [Example 56],4.15
11,Cc1c(NC(=O)c2cccnc2C(F)F)cccc1C1CCCC1 [Example 121],3.25
12,O=C(Nc1cccc(OC2CCCC2)c1C(F)(F)F)c1cccnc1C(F)F [Example 91],3.33
13,O=C(Nc1cccc(-c2ccccc2F)c1Cl)c1cccnc1C(F)F [Example 4],2.99
14,Cc1c(NC(=O)c2cccnc2C(F)F)cccc1OCCC(F)(F)F [Example 120],2.68
15,CC(Oc1cccc(NC(=O)c2ccc(Cl)nc2C(F)F)c1C(F)(F)F)c1ccccc1 (centres unmarked) [Example 103],4.03
16,Cc1c(NC(=O)c2cccnc2C(F)F)cccc1N(C)C [Example 108],0.45
17,Cc1c(NC(=O)c2cccnc2C(F)F)cccc1OCCc1cccc(Cl)c1 [Example 65],3.61
18,Cc1c(NC(=O)c2cccnc2C(F)F)cccc1N(C)C1CCCC1 [Example 109],1.39
19,O=C(Nc1cccc(-c2ccc(F)cc2F)c1Cl)c1cccnc1C(F)F [Example 10],3.12
20,Cc1c(NC(=O)c2cccnc2C(F)F)cccc1OCCc1ccccc1F [Example 62],3.31
21,Cc1c(NC(=O)c2cccnc2C(F)F)cccc1OC(C)c1cccc(Cl)c1 (centres unmarked) [Example 51],3.63

row,Structure (SMILES),LogP[a]
1,Cc1c(NC(=O)c2cccnc2C(F)F)cccc1OC1CCCC1 [Example 75],3.21
2,CCO/N=C\C(C)Oc1cccc(NC(=O)c2cccnc2C(F)F)c1C (centres unmarked) [Example 29],2.82
3,CCCC(CC)Oc1cccc(NC(=O)c2cccnc2C(F)F)c1C (centres unmarked) [Example 83],3.94
4,CC(C)Oc1cccc(NC(=O)c2cccnc2C(F)F)c1C(F)(F)F [Example 99],2.80
5,Cc1c(NC(=O)c2cccnc2C(F)F)cccc1OCc1ccccc1F [Example 41],3.06
6,Cc1c(NC(=O)c2cccnc2C(F)F)cccc1OCc1cccs1 [Example 71],2.82
7,CCC(C)Oc1cccc(NC(=O)c2ccc(Cl)nc2C(F)F)c1C(F)(F)F (centres unmarked) [Example 96],3.83
8,Cc1ccccc1OCC(C)Oc1cccc(NC(=O)c2cccnc2C(F)F)c1C (centres unmarked) [Example 32],3.74
9,Cc1c(NC(=O)c2cccnc2C(F)F)cccc1OC(C)Cc1ccc(Cl)cc1 (centres unmarked) [Example 67],3.90
10,Cc1c(NC(=O)c2cccnc2C(F)F)cccc1OCc1ccc(Br)cc1 [Example 19],3.55
11,Cc1c(NC(=O)c2cccnc2C(F)F)cccc1C1CCCCO1 (centres unmarked) [Example 80],2.53
12,Cc1c(NC(=O)c2cccnc2C(F)F)cccc1OC(C)Cc1ccccc1 (centres unmarked) [Example 88],3.62
13,Cc1c(NC(=O)c2cccnc2C(F)F)cccc1OC(C)c1ccc(Cl)c(Cl)c1 (centres unmarked) [Example 48],4.01
14,CCOCC(C)Oc1cccc(NC(=O)c2cccnc2C(F)F)c1C (centres unmarked) [Example 20],2.57
15,Cc1cccc(OCC(C)Oc2cccc(NC(=O)c3cccnc3C(F)F)c2C)c1 (centres unmarked) [Example 33],3.68
16,CC(Oc1cccc(NC(=O)c2cccnc2C(F)F)c1C(F)(F)F)c1ccccc1 (centres unmarked) [Example 101],3.42
17,Cc1c(NC(=O)c2cccnc2C(F)F)cccc1OC(C)c1ccc(Cl)cc1 (centres unmarked) [Example 47],3.65
18,Cc1c(NC(=O)c2cccnc2C(F)F)cccc1OCc1cccc(Cl)c1Cl [Example 45],3.83
19,Cc1c(NC(=O)c2cccnc2C(F)F)cccc1OCCc1ccc(C(F)(F)F)cc1 [Example 58],3.72
20,Cc1c(COC(C)C)cccc1NC(=O)c1cccnc1C(F)F [Example 90],2.43
21,Cc1c(NC(=O)c2cccnc2C(F)F)cccc1OC(C)CCC(C)C (centres unmarked) [Example 87],4.26

# Same assay, conditions: reversed phase HPLC column; LC-UV, acidic range, 0.1% formic acid in water and acetonitrile as eluent (linear gradient 10% to 95% acetonitrile)
row,Structure (SMILES),chromatographic logP
1,"CCCC(C)Oc1cccc(NC(=O)c2cccnc2C(F)F)c1C (centres unmarked) [Example 79, 2-(difluoromethyl)-N-[2-methyl-3-(pentan-2-yloxy)phenyl]nicotinamide]",3.48
2,"Cc1c(NC(=O)c2cccnc2C(F)F)cccc1-c1cncc(C(F)(F)F)c1 [Example 110, 2-(difluoromethyl)-N-{2-methyl-3-[5-(trifluoromethyl)pyridin-3-yl]phenyl}nicotinamide]",2.6
